In patent US9181232B2, “Difluoro-hexahydro-cyclopentaoxazinyls and difluoro-hexahydro-benzooxazinyls as BACE1 inhibitors” (Hoffmann-La Roche Inc., priority 2012, dated 2015):

How the values were obtained:
P-gp (human MDR1) = target: T1, P-gp (human MDR1) (Homo sapiens, UniProt P08183); experiment: P-gp (P-Glycoprotein) assay, bidirectional transcellular transport in LLC-PK1 and L-MDR1 cells; type: in vitro ADME; conditions: read-out: P-gp human, efflux ratio: substrate category
T1 construct: host or cells: LLC-PK1 (porcine kidney epithelial) transfected with human MDR1 (L-MDR1)
Protocol: The LLC-PK1 cell line (ATCC #CL-101) is a porcine kidney epithelial cell line. The MDR1 (Human multidrug resistance protein 1) transfected cell lines were obtained from Dr. A. Schinkel, The Netherlands Cancer Institute (Amsterdam, The Netherlands). All cell lines were cultured on permeable inserts (96-insert plates Millipore, 0.11 cm^2 area, pore size 0.4 μm) at 0.73*10^6 cells/ml. Transport measurements were performed at day 4 after seeding. Tightness of the cell monolayer was controlled via the permeability of the extracellular marker lucifer yellow (10 μM).
Bidirectional transcellular transport using LLC-PK1 and L-MDR1 LLC-PK1 cells exogenously expressing the human MDR1)
The experiments were performed on a TECAN automated liquid handling system. […] Concentrations of substrate in both compartments were determined by scintillation counting (digoxin) or by LC-MS/MS. The extracellular marker (lucifer yellow) was quantified using a spectrafluor plus reader at 430/535 nm (Ex/Em). In each experiment 3 different inserts were used for each condition and a mean was calculated. […]
Where Papp, A, C0, and dQ/dt represent the apparent permeability, the filter surface area, the initial concentration, and the amount transported per time period, respectively. Papp values were calculated on the basis of a single time point (2 h).
Transport efflux ratios (ER) were calculated as follows: […]

CYP2C9 = target: T2, CYP2C9 (Homo sapiens, UniProt P11712); experiment: CYP inhibition assay, human liver microsomes, diclofenac; type: in vitro ADME; conditions: read-out: CYP IC50 2C9
T2 construct: 0.2 mg/ml pooled human liver microsomes; from tissue; host or cells: pooled human liver microsomes
Protocol: Inhibition of cytochromes P450 (CYPs) 2C9, 2D6 and 3A4 was assessed using human liver microsomes and CYP-selective substrate metabolism reactions. 50 μl incubations were made up containing (finally) 0.2 mg/ml pooled human liver microsomes, 5 μM substrate (diclofenac for CYP2C9 [4′hydroxylase], dextromethorphan for CYP2D6 [O-demethylase] or midazolam for CYP3A4 [1′hydroxylase]), 0.25 μL DMSO containing test inhibitor and NADPH regenerating system. Test inhibitor concentrations of 50, 16.7, 5.6, 1.9, 0.6 and 0.2 μM were assessed in singlicate. Incubations were prewarmed to 37° C. for 10 minutes before initiation by addition of NADPH regenerating system. Incubations were quenched after 5 minutes (20 minutes for dextromethorphan) by addition of 50 μl cold acetonitrile containing 20 ng/ml 4-OH-diclofenac-13C6, 20 ng/mL dextrorphan-D3 and 20 ng/mL 1-OH-midazolam-D4. Quenched incubates were stored at −20° C. for at least 1 hour before centrifugation (20,000×g, 20 minutes). Supernatants were removed and diluted 1:1 with water prior to analysis using a RapidFire sample injector system and API4000 mass spectrometer. Peak areas for substrate, metabolite and stable-labelled metabolite standard were determined using MS/MS. The peak area ratios between the metabolite generated by the enzymatic reaction and the internal standard were used in subsequent calculations. The percentage of (DMSO) control activity was calculated for each incubate and IC50 values estimated by non-linear regression. Sulfaphenazole, quinidine or ketoconazole were tested in each CYP2C9, CYP2D6 or CYP3A4 inhibition experiment, respectively, to ensure assay sensitivity and reproducibility. (Validated assays for human cytochrome P450 activities^11)

in vivo effect = conditions: @ 30 mg/kg p.o.
BACE1 = target: T3, BACE1 (Homo sapiens, UniProt P56817); experiment: Cellular Aβ-lowering assay (Aβ40 ELISA, HEK293 cells expressing human APP695); type: cell-based; conditions: HEK293 cells stably expressing human APP695; Aβ40 in supernatant after 18-20 hrs; read-out: BACE1 cell act. Aβ40 IC50
T3 construct: Human HEK293 cells which are stably transfected with a vector expressing a cDNA of the human APP wt gene (APP695); endogenous in cells; host or cells: HEK293 stably expressing human APP695 wt
Protocol: Human HEK293 cells which are stably transfected with a vector expressing a cDNA of the human APP wt gene (APP695) were used to assess the potency of the compounds in a cellular assay. The cells were seeded in 96-well microtiter plates in cell culture medium (Iscove, plus 10% (v/v) fetal bovine serum, glutamine, penicillin/streptomycin) to about 80% confluence and the compounds were added at a 10× concentration in 1/10 volume of medium without FCS containing 8% DMSO (final concentration of DMSO was kept at 0.8% v/v). After 18-20 hrs incubation at 37° C. and 5% CO2 in a humidified incubator the culture supernatant was harvested for the determination of Aβ40 concentrations. 96 well ELISA plates (e.g., Nunc MaxiSorb) were coated with monoclonal antibody which specifically recognize the C-terminal end of Aβ40^10. After blocking of non-specific binding sites with e.g. 1% BSA and washing, the culture supernatants were added in suitable dilutions together with a horseradish peroxidase-coupled Aβ detection antibody (e.g., antibody 4G8, Senetek, Maryland Heights, Mo.) and incubated for 5 to 7 hrs. Subsequently the wells of the microtiter plate were washed extensively with Tris-buffered saline containing 0.05% Tween 20 and the assay was developed with tetramethylbenzidine/H2O2 in citric acid buffer. After stopping the reaction with one volume 1 N H2SO4 the reaction was measured in an ELISA reader at 450 nm wavelength. The concentrations of Aβ in the culture supernatants were calculated from a standard curve obtained with known amounts of pure Aβ peptide.

[1] = Detection of glutathione conjugates; type: in vitro ADME, human; design: key: NF = in vitro no significant adduct formation relative to control; conditions: in vitro, relative to control
Source text: The assay conditions for the detection of glutathione conjugates follow the procedure described by C. M. Dieckhaus et al.^13

T3 sequence (P56817 46-501): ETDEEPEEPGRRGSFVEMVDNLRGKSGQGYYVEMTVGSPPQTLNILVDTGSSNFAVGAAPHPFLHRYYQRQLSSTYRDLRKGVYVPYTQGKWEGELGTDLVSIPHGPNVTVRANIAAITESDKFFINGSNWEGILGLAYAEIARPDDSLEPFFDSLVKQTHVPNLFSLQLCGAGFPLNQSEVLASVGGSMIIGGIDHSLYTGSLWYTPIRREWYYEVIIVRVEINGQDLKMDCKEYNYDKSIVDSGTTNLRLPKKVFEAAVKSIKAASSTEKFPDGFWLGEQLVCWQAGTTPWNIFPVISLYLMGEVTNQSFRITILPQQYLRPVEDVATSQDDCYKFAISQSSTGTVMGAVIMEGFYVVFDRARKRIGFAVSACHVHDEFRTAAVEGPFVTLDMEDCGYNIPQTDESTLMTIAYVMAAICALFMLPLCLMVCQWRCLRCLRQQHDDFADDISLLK
T2 sequence (P11712 whole entry): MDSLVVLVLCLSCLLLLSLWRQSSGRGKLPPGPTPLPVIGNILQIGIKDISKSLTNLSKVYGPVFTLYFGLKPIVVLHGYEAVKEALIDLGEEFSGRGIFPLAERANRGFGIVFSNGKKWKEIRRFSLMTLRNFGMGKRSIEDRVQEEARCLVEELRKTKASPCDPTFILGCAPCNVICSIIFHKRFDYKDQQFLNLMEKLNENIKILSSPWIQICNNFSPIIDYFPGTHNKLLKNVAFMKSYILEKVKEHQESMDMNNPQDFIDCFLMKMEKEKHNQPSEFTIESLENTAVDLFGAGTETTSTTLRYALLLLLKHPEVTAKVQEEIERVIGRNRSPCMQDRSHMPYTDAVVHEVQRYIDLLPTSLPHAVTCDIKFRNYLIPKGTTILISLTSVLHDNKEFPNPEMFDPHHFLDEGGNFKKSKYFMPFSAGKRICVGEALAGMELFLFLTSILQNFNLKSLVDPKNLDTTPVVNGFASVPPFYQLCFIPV
T1 sequence (P08183 whole entry): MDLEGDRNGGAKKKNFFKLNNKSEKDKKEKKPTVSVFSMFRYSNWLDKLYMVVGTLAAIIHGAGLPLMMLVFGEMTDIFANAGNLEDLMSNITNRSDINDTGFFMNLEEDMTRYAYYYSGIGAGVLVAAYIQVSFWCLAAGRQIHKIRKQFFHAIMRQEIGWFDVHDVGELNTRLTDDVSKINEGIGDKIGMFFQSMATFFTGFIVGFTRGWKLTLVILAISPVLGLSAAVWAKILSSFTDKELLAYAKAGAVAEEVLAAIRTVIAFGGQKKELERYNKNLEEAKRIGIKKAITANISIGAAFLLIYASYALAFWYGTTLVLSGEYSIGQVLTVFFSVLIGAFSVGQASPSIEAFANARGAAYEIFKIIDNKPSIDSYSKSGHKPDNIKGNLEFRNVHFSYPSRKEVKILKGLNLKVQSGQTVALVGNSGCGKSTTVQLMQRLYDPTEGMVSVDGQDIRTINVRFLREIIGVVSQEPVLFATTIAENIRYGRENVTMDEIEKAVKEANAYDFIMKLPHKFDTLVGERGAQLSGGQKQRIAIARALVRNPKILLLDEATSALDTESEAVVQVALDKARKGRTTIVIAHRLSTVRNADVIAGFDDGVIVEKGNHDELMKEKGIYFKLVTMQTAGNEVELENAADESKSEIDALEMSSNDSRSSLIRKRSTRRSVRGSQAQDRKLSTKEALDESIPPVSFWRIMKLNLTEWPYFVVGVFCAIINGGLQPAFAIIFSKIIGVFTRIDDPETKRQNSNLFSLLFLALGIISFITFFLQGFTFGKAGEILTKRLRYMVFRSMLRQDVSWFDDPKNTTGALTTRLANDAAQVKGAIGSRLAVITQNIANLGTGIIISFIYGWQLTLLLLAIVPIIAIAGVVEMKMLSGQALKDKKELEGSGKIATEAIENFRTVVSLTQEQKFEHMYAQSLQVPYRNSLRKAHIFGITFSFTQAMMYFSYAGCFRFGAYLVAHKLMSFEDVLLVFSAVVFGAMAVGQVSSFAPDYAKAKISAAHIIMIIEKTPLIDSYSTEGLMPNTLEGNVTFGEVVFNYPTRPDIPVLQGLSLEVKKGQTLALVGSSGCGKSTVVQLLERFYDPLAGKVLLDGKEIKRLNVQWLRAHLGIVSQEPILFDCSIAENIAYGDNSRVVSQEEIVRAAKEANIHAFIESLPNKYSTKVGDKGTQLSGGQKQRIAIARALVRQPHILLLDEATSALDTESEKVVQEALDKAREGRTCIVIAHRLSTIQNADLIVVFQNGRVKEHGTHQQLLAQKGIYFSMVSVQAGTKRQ

With `CC#CCOc1cnc(C(=O)Nc2ccc(F)c([C@@]3(C)N=C(N)O[C@@H]4CCC(F)(F)[C@@H]43)c2)cn1` [Example 1, 5-But-2-ynyloxy-pyrazine-2-carboxylic acid [3-((4S,4aR,7aR)-2-amino-5,5-difluoro-4-methyl-4,4a,5,6,7,7a-hexahydro-cyclopenta[e][1,3]oxazin-4-yl)-4-fluoro-phenyl]-amide] the efflux ratio at 2 h (P-gp (human MDR1)) was 3 to 10, the IC50 (CYP2C9) was greater than 10000 nM and the “in vivo effect (% of control)” value (in vivo effect) was “A (A = less than 50% of control @ 30 mg/kg p.o.)”. The IC50 (BACE1) was 0.4 nM.
In the case of `C[C@]1(c2cc(NC(=O)c3ccc(C#N)cn3)ccc2F)N=C(N)O[C@@H]2CCC(F)(F)[C@@H]21` [Example 2, 5-Cyano-pyridine-2-carboxylic acid [3-((4S,4aR,7aR)-2-amino-5,5-difluoro-4-methyl-4,4a,5,6,7,7a-hexahydro-cyclopenta[e][1,3]oxazin-4-yl)-4-fluoro-phenyl]-amide], the “GSH human (glutathione adduct formation)” value [1] is reported as “NF”, the efflux ratio at 2 h (P-gp (human MDR1)) is reported as 3 to 10 and the IC50 (CYP2C9) is reported as greater than 10000 nM. The “in vivo effect (% of control)” value (in vivo effect) was “A (A = less than 50% of control @ 30 mg/kg p.o.)” and the IC50 (BACE1) was 1.5 nM.
For `C[C@]1(c2cc(NC(=O)c3ccc(C#N)cn3)ccc2F)N=C(N)O[C@@H]2CCCC(F)(F)[C@@H]21` [Example 8, 5-Cyano-pyridine-2-carboxylic acid [3-((4S,4aR,8aR)-2-amino-5,5-difluoro-4-methyl-4a,5,6,7,8,8a-hexahydro-4H-benzo[e][1,3]oxazin-4-yl)-4-fluoro-phenyl]-amide], the “GSH human (glutathione adduct formation)” value [1] was “NF”, the IC50 (CYP2C9) was greater than 10000 nM and the “in vivo effect (% of control)” value (in vivo effect) was “A (A = less than 50% of control @ 30 mg/kg p.o.)”. The IC50 (BACE1) was 2.2 nM.
